Tests used:
Type in all cases: in vivo
Conditions in all cases: 250 g/ha, evaluated after 13 days
[1] = tested on: Amaranthus palmeri (AMAPA); test: Post-emergence herbicide glasshouse test
Description: (§1) Seeds of a variety of test species are sown in standard soil in pots Amaranthus palmeri (AMAPA), Amaranthus retoflexus (AMARE), Echinochloa crus-galli (ECHCG), Ipomoea hederacea (IPOHE)). After cultivation for one day (pre-emergence) or after 8 days cultivation (post-emergence) under controlled conditions in a glasshouse (at 24/16° C., day/night; 14 hours light; 65% humidity), the plants are sprayed with an aqueous spray solution derived from the formulation of the technical active ingredient in acetone/water (50:50) solution containing 0.5% Tween 20 (polyoxyethelyene sorbitan monolaurate, CAS RN 9005-64-5). Compounds are applied at 250 g/ha unless otherwise stated. The test plants are then grown in a glasshouse under controlled conditions in a glasshouse (at 24/16° C., day/night; 14 hours light; 65% humidity) and watered twice daily. After 13 days for pre and post-emergence, the test is evaluated for the percentage damage caused to the plant. The biological activities are shown in the following table on a five-point scale (5=81-100%; 4=61-80%; 3=41-60%; 2=21-40%; 1=0-20%).

[2] = tested on: Amaranthus retoflexus (AMARE); test: Post-emergence herbicide glasshouse test
Description: as §1

[3] = tested on: Echinochloa crus-galli (ECHCG); test: Post-emergence herbicide glasshouse test
Description: as §1

[4] = tested on: Ipomoea hederacea (IPOHE); test: Post-emergence herbicide glasshouse test
Description: as §1

[5] = tested on: Amaranthus palmeri (AMAPA); test: Pre-emergence herbicide glasshouse test
Description: as §1

[6] = tested on: Amaranthus retoflexus (AMARE); test: Pre-emergence herbicide glasshouse test
Description: as §1

[7] = tested on: Echinochloa crus-galli (ECHCG); test: Pre-emergence herbicide glasshouse test
Description: as §1

[8] = tested on: Ipomoea hederacea (IPOHE); test: Pre-emergence herbicide glasshouse test
Description: as §1

Compound | percentage damage caused to the plant, AMAPA (five-point scale) [1] | percentage damage caused to the plant, AMARE (five-point scale) [2] | percentage damage caused to the plant, ECHCG (five-point scale) [3] | percentage damage caused to the plant, IPOHE (five-point scale) [4] | percentage damage caused to the plant, AMAPA (five-point scale) [5] | percentage damage caused to the plant, AMARE (five-point scale) [6] | percentage damage caused to the plant, ECHCG (five-point scale) [7] | percentage damage caused to the plant, IPOHE (five-point scale) [8]
Cn1cc(Cn2cc(C(F)(F)F)nc2-c2ccc(Cl)nc2)nn1 [Compound 1.057] | 4 (4=61-80%) | 4 (4=61-80%) | 4 (4=61-80%) | 4 (4=61-80%) | 5 (5=81-100%) | 5 (5=81-100%) | 4 (4=61-80%) | 5 (5=81-100%)
Fc1ccc(-c2nc(C(F)(F)F)cn2Cc2ccc(Cl)s2)cc1F [Compound 1.173] | 4 (4=61-80%) | 5 (5=81-100%) | 2 (2=21-40%) | 1 (1=0-20%) | 5 (5=81-100%) | 5 (5=81-100%) | 1 (1=0-20%) | 1 (1=0-20%)
Cc1cc(Cn2cc(C(F)(F)F)nc2-c2ccc(Cl)nc2)no1 [Compound 1.075] | 5 (5=81-100%) | 5 (5=81-100%) | 5 (5=81-100%) | 5 (5=81-100%) | 5 (5=81-100%) | 5 (5=81-100%) | 5 (5=81-100%) | 5 (5=81-100%)
FC(F)(F)c1cn(Cc2ncco2)c(-c2ccc(Cl)nc2)n1 [Compound 1.118] | 3 (3=41-60%) | 3 (3=41-60%) | 1 (1=0-20%) | 3 (3=41-60%) | 5 (5=81-100%) | 5 (5=81-100%) | 1 (1=0-20%) | 5 (5=81-100%)
Cc1nnc(Cn2cc(C(F)(F)F)nc2-c2ccc(F)c(F)c2)s1 [Compound 1.021] | 5 (5=81-100%) | 5 (5=81-100%) | 4 (4=61-80%) | 4 (4=61-80%) | 5 (5=81-100%) | 5 (5=81-100%) | 5 (5=81-100%) | 5 (5=81-100%)
FC(F)(F)c1cn(Cc2ccc(Cl)s2)c(-c2ccc(Cl)nc2)n1 [Compound 1.117] | 5 (5=81-100%) | 5 (5=81-100%) | 1 (1=0-20%) | 2 (2=21-40%) | 5 (5=81-100%) | 5 (5=81-100%) | 1 (1=0-20%) | 1 (1=0-20%)
Cc1noc(Cn2cc(C(F)(F)F)nc2-c2ccc(C(F)(F)F)cc2)n1 [Compound 1.008] | 4 (4=61-80%) | 4 (4=61-80%) | 2 (2=21-40%) | 4 (4=61-80%) | 5 (5=81-100%) | 5 (5=81-100%) | 1 (1=0-20%) | 3 (3=41-60%)
CCc1nc(Cn2cc(C(F)(F)F)nc2-c2ccc(Cl)nc2)no1 [Compound 1.090] | 5 (5=81-100%) | 5 (5=81-100%) | 4 (4=61-80%) | 5 (5=81-100%) | 5 (5=81-100%) | 5 (5=81-100%) | 4 (4=61-80%) | 5 (5=81-100%)
Cc1nnc(Cn2cc(C(F)(F)F)nc2-c2cnc(Cl)c(F)c2)s1 [Compound 1.017] | 5 (5=81-100%) | 5 (5=81-100%) | 2 (2=21-40%) | 1 (1=0-20%) | 5 (5=81-100%) | 5 (5=81-100%) | 4 (4=61-80%) | 5 (5=81-100%)
Cc1nc(Cn2cc(C(F)(F)F)nc2-c2ccc(Cl)nc2)no1 [Compound 1.097] | 5 (5=81-100%) | 5 (5=81-100%) | 5 (5=81-100%) | 5 (5=81-100%) | 5 (5=81-100%) | 5 (5=81-100%) | 5 (5=81-100%) | 5 (5=81-100%)
Cn1cnc(Cn2cc(C(F)(F)F)nc2-c2cnc(F)c(Cl)c2)n1 [Compound 1.165] | 5 (5=81-100%) | 5 (5=81-100%) | 5 (5=81-100%) | 5 (5=81-100%) | 5 (5=81-100%) | 5 (5=81-100%) | 5 (5=81-100%) | 5 (5=81-100%)
FC(F)(F)c1cn(Cc2cc(C3CC3)no2)c(-c2ccc(Cl)nc2)n1 [Compound 1.134] | 5 (5=81-100%) | 5 (5=81-100%) | 2 (2=21-40%) | 4 (4=61-80%) | 5 (5=81-100%) | 5 (5=81-100%) | 3 (3=41-60%) | 4 (4=61-80%)
Cc1noc(C)c1Cn1cc(C(F)(F)F)nc1-c1ccc(C(F)(F)F)cc1 [Compound 1.005] | 1 (1=0-20%) | 1 (1=0-20%) | 1 (1=0-20%) | 1 (1=0-20%) | 5 (5=81-100%) | 5 (5=81-100%) | 1 (1=0-20%) | 1 (1=0-20%)

From patent US20260125360A1, “HERBICIDAL IMIDAZOLE COMPOUNDS” (SYNGENTA CROP PROTECTION AG, priority 2022, published 2026)
